In patent US20250145609A1, “3-SUBSTITUTED PYRIDAZINE COMPOUNDS AS SMARCA2 AND/OR SMARCA4 DEGRADERS” (Aurigene Oncology Limited, priority 2022, published 2025):

Experiments:
Format in all cases: cell-based
VCaP cells = assay: Anti proliferative activity in VCaP cell line by CellTiter Glo assay; settings: Homo sapiens, VCaP, 192 h, 8 days incubation, CellTiter Glo luminescence
Method: Example-P1: Determination of Anti Proliferative Activity of Compounds in Cell Lines VCaP by Cell Titer Glo©(Promega) Assay
VCaP (ATCC CRL-2876) cells were seeded in 96 well plate flat black clear bottom plates (Corning, Cat. No 3904) using complete DMEM Medium. Next day, compounds listed in the present invention were added to cells from 10 mM stocks made in DMSO (Sigma Cat no. D2650). Each concentration of compound was tested in triplicate with DMSO concentration at a final percentage not exceeding 0.3 in the cells. After the incubation of VCaP cells with compound for 8 days assay was terminated using 50 μl of CellTiter Glo© reagent (Promega, Cat. no G7572). CellTiter-Glo® Luminescent reagent determines the number of viable cells based on quantitation of ATP present which is an indicator of cell number and metabolic activity. Luminescence readings were taken in Victor-3 instrument. Percent inhibition of proliferation was calculated using formula, % inhibition=100−(luminescence value of test/luminescence value of DMSO control)*100. DMSO control (0%)=Cells in complete media with DMSO; blank=Media alone containing DMSO. EC50 was calculated using graph pad prism software.
Herein the group “A” refers to EC50 values lower than l0 nM, group “B” refers to EC50 values between l0 nM-100 nM (both inclusive) and group “C” refers to EC50 values greater than 100 nM.

SMARCA2 = target: T1, SMARCA2 (Homo sapiens, UniProt P51531); assay: SMARCA2 degradation in VCaP cells by Western blot; settings: at 100 nM, 16 hours
T1 construct: endogenous in cells; host or cells: VCaP (ATCC CRL-2876)
Summary of the method: (§1)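 VCaP cells in DMEM treated 16 h with compound at a single 100 nM dose (DMSO ≤0.3%). Lysates were probed by Western blot for SMARCA2 or SMARCA4, with beta-tubulin as loading control. Percent degradation was calculated from band signals.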

SMARCA4 = target: T2, SMARCA4 (Homo sapiens, UniProt P51532); assay: SMARCA4 degradation in VCaP cells by Western blot; settings: VCaP, 16 h, at 100 nM
T2 construct: endogenous in cells; host or cells: VCaP (ATCC CRL-2876)
Summary of the method: as §1

T2 sequence (P51532 whole entry): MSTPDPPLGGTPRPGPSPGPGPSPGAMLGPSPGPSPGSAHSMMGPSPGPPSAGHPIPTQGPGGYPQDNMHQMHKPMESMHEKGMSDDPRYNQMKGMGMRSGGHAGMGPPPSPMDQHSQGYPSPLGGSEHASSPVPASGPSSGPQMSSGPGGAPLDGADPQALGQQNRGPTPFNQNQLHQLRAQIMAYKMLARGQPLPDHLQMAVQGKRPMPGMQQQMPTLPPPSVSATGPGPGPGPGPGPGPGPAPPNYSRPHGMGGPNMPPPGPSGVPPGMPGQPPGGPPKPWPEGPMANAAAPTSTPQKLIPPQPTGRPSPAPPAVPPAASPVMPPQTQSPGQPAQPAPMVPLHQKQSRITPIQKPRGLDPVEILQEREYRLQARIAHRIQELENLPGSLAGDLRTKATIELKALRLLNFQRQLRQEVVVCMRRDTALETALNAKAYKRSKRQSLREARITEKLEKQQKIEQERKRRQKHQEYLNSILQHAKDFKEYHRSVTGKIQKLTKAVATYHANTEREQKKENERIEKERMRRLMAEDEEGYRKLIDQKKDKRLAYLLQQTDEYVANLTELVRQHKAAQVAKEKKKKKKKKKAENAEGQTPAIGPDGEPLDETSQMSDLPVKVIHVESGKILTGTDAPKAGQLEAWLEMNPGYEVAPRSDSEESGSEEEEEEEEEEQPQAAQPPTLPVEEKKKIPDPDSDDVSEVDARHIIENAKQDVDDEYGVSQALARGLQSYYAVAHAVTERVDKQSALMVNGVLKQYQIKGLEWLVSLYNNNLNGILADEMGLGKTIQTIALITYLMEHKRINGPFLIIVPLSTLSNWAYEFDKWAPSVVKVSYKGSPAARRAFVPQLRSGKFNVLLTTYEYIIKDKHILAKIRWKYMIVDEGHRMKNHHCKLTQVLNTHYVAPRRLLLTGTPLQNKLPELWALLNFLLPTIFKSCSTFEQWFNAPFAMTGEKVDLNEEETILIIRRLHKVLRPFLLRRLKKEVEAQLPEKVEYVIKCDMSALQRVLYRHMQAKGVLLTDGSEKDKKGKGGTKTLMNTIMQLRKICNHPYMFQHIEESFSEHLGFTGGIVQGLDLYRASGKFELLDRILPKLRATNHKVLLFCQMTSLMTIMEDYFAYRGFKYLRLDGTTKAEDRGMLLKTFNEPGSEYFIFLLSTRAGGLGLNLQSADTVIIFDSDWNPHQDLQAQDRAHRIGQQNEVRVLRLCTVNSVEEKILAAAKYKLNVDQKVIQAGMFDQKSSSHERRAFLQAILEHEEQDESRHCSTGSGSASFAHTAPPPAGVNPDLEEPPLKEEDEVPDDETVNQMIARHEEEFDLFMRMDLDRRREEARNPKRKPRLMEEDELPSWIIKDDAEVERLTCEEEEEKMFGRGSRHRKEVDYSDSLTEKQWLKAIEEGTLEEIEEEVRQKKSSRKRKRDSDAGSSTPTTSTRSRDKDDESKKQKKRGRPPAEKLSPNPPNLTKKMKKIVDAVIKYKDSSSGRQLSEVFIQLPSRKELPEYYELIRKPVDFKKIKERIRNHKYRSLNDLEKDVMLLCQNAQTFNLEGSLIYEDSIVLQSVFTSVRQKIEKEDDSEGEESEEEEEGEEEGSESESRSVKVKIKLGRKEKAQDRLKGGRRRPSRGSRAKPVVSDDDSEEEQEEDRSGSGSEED
T1 sequence (P51531 whole entry): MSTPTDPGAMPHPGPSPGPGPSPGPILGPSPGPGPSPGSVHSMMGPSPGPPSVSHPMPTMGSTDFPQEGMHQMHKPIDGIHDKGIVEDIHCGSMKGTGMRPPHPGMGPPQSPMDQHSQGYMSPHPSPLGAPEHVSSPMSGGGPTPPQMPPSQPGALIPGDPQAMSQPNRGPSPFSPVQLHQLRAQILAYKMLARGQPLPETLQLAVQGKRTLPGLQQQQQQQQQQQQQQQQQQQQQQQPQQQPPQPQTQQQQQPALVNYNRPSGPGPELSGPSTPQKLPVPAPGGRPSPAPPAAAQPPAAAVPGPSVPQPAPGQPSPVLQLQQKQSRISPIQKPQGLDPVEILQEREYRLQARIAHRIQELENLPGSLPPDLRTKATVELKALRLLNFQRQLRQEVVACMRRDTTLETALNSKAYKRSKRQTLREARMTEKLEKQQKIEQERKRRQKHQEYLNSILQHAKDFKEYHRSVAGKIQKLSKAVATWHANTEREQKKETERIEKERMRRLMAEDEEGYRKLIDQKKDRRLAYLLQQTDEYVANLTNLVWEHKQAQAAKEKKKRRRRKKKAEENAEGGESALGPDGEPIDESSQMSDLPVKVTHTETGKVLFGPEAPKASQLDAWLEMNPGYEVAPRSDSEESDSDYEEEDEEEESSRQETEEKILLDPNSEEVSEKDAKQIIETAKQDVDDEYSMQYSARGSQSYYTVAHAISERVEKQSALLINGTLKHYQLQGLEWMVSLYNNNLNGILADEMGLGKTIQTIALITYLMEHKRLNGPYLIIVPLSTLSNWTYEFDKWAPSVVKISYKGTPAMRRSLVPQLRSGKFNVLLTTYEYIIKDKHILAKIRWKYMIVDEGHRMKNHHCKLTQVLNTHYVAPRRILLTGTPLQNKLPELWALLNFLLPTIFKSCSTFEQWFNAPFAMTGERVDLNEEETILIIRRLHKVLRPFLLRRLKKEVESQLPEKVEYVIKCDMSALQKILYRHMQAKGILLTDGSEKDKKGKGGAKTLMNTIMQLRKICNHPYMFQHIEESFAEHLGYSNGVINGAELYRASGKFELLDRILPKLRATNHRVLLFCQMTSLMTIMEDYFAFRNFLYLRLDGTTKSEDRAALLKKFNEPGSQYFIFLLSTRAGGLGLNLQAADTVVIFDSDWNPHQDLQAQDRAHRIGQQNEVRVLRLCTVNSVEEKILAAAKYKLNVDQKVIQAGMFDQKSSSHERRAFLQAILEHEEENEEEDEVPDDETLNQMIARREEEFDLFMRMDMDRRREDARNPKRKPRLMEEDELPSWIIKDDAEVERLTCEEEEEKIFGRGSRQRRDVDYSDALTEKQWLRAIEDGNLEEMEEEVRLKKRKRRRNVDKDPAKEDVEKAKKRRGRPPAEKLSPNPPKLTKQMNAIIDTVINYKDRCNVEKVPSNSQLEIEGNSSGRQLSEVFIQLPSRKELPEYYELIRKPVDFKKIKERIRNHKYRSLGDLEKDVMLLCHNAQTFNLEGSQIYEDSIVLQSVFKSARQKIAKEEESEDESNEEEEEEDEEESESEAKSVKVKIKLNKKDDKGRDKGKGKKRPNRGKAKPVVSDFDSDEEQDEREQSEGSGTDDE

EC50 (VCaP cells) [nM] | Percent degradation SMARCA2 (SMARCA2) [%] | Percent SMARCA4 degradation at 0.1 µM (SMARCA4) [%] | Structure (SMILES)
< 10 | 95 | 96 | Cc1ncsc1-c1ccc([C@H](C)NC(=O)[C@@H]2C[C@@H](O)CN2C(=O)C(c2cc(OCCOc3ccc(-c4cc(-c5ccccc5O)nnc4N)cc3)no2)C(C)C)cc1 (stereo partly drawn) [Compound 24, (2S,4R)-1-(2-(3-(2-(4-(3-amino-6-(2-hydroxyphenyl)pyridazin-4-yl)phenoxy)ethoxy)isoxazol-5-yl)-3-methylbutanoyl)-4-hydroxy-N—((S)-1-(4-(4-methylthiazol-5-yl)phenyl)ethyl)pyrrolidine-2-carboxamide]
< 10 | 98 | 89 | Cc1ncsc1-c1ccc([C@H](C)NC(=O)[C@@H]2C[C@@H](O)CN2C(=O)[C@@H](NC(=O)CC2CCC(c3ccc(-c4cc(-c5ccccc5O)nnc4N)cc3)CC2)C(C)(C)C)cc1 (single isomer, unassigned) [Compound 44]
< 10 | 95 | 95 | Cc1ncsc1-c1ccc([C@H](C)NC(=O)[C@@H]2C[C@@H](O)CN2C(=O)[C@@H](NC(=O)CN2CCC(c3ccc(-c4cc(-c5ccccc5O)nnc4N)cc3)CC2)C(C)(C)C)cc1 [Compound 29, (2S,4R)-1-((S)-2-(2-(4-(4-(3-amino-6-(2-hydroxyphenyl)pyridazin-4-yl)phenyl)piperidin-1-yl)acetamido)-3,3-dimethylbutanoyl)-4-hydroxy-N—((S)-1-(4-(4-methylthiazol-5-yl)phenyl)ethyl)pyrrolidine-2-carboxamide]
< 10 | 99 | 86 | Cc1ncsc1-c1ccc([C@H](C)NC(=O)[C@@H]2C[C@@H](O)CN2C(=O)[C@@H](NC(=O)CN2CCC(c3ccc(-c4cc(-c5ccccc5O)nnc4N)cc3)CC2C)C(C)(C)C)cc1 (single isomer, unassigned) [Compound 36]
10 to 100 | 96 | 67 | Cc1ncsc1-c1ccc([C@H](C)NC(=O)[C@@H]2C[C@@H](O)CN2C(=O)[C@@H](NC(=O)CN2CCN(c3ccc(-c4cc(-c5ccccc5O)nnc4N)c(F)c3)CC2)C(C)(C)C)cc1 [Compound 28, (2S,4R)-1-((S)-2-(2-(4-(4-(3-amino-6-(2-hydroxyphenyl)pyridazin-4-yl)-3-fluorophenyl)piperazin-1-yl)acetamido)-3,3-dimethylbutanoyl)-4-hydroxy-N—((S)-1-(4-(4-methylthiazol-5-yl)phenyl)ethyl)pyrrolidine-2-carboxamide]
> 100 | 78 | 0 | Cc1ncsc1-c1ccc([C@H](C)NC(=O)[C@@H]2C[C@@H](O)CN2C(=O)[C@@H](NC(=O)CN2CCN(c3ccc(-c4cc(-c5ccccc5O)nnc4N)cc3)C(=O)C2)C(C)(C)C)cc1 [Compound 39, (2S,4R)-1-((S)-2-(2-(4-(4-(3-amino-6-(2-hydroxyphenyl)pyridazin-4-yl)phenyl)-3-oxopiperazin-1-yl)acetamido)-3,3-dimethylbutanoyl)-4-hydroxy-N-((S)-1-(4-(4-methylthiazol-5-yl)phenyl)ethyl)pyrrolidine-2-carboxamide]
> 100 | 97 | 71 | Cc1ncsc1-c1ccc([C@H](C)NC(=O)[C@@H]2C[C@@H](O)CN2C(=O)[C@@H](NC(=O)CC#Cc2ccc(-c3cc(-c4ccccc4O)nnc3N)cc2)C(C)(C)C)cc1 [Compound 21, (2S,4R)-1-((S)-2-(4-(4-(3-amino-6-(2-hydroxyphenyl)pyridazin-4-yl)phenyl)but-3-ynamido)-3,3-dimethylbutanoyl)-4-hydroxy-N-((S)-1-(4-(4-methylthiazol-5-yl)phenyl)ethyl)pyrrolidine-2-carboxamide]
10 to 100 | 98 | 51 | Cc1ncsc1-c1ccc([C@H](C)NC(=O)[C@@H]2C[C@@H](O)CN2C(=O)C(C(C)C)n2cc(-c3ccc(-c4cc(-c5ccccc5O)nnc4N)cc3)cn2)cc1 (stereo partly drawn) [Compound 11, (2S,4R)-1-(2-(4-(4-(3-amino-6-(2-hydroxyphenyl)pyridazin-4-yl)phenyl)-1H-pyrazol-1-yl)-3-methylbutanoyl)-4-hydroxy-N—((S)-1-(4-(4-methylthiazol-5-yl)phenyl)ethyl)pyrrolidine-2-carboxamide]
10 to 100 | 100 | 91 | Cc1ncsc1-c1ccc([C@H](C)NC(=O)[C@@H]2C[C@@H](O)CN2C(=O)[C@@H](NC(=O)CC2CCN(c3ccc(-c4cc(-c5ccccc5O)nnc4N)cc3)CC2)C(C)(C)C)cc1 [Compound 38, (2S,4R)-1-((S)-2-(2-(1-(4-(3-amino-6-(2-hydroxyphenyl)pyridazin-4-yl)phenyl)piperidin-4-yl)acetamido)-3,3-dimethylbutanoyl)-4-hydroxy-N-((S)-1-(4-(4-methylthiazol-5-yl)phenyl)ethyl)pyrrolidine-2-carboxamide]
10 to 100 | 95 | 24 | Cc1ncsc1-c1ccc([C@H](C)NC(=O)[C@@H]2C[C@@H](O)CN2C(=O)[C@@H](NC(=O)CN2CCC(c3ccc(-c4cc(-c5ccccc5O)nnc4N)cc3)C2)C(C)(C)C)cc1 (stereo partly drawn) [Compound 51, (2S,4R)-1-((2S)-2-(2-(3-(4-(3-amino-6-(2-hydroxyphenyl)pyridazin-4-yl)phenyl)pyrrolidin-1-yl)acetamido)-3,3-dimethylbutanoyl)-4-hydroxy-N-((S)-1-(4-(4-methylthiazol-5-yl)phenyl)ethyl)pyrrolidine-2-carboxamide]
> 100 | 97 | 70 | Cc1ncsc1-c1ccc([C@H](C)NC(=O)[C@@H]2C[C@@H](O)CN2C(=O)[C@@H](NC(=O)CN2CC(c3ccc(-c4cc(-c5ccccc5O)nnc4N)cc3)C2)C(C)(C)C)cc1 [Compound 52, (2S,4R)-1-((S)-2-(2-(3-(4-(3-amino-6-(2-hydroxyphenyl)pyridazin-4-yl)phenyl)azetidin-1-yl)acetamido)-3,3-dimethylbutanoyl)-4-hydroxy-N-((S)-1-(4-(4-methylthiazol-5-yl)phenyl)ethyl)pyrrolidine-2-carboxamide]
10 to 100 | 92 | 63 | Cc1ncsc1-c1ccc(CNC(=O)[C@@H]2C[C@@H](O)CN2C(=O)[C@@H](NC(=O)CN2CCC(c3ccc(-c4cc(-c5ccccc5O)nnc4N)cc3)CC2)C(C)(C)C)cc1 [Compound 30, (2S,4R)-1-((S)-2-(2-(4-(4-(3-amino-6-(2-hydroxyphenyl)pyridazin-4-yl)phenyl)piperidin-1-yl)acetamido)-3,3-dimethylbutanoyl)-4-hydroxy-N-(4-(4-methylthiazol-5-yl)benzyl)pyrrolidine-2-carboxamide]
< 10 | 98 | 89 | Cc1ncsc1-c1ccc([C@H](C)NC(=O)[C@@H]2C[C@@H](O)CN2C(=O)[C@@H](NC(=O)CN2CCC(Oc3ccc(-c4cc(-c5ccccc5O)nnc4N)cc3)CC2)C(C)(C)C)cc1 [Compound 53, (2S,4R)-1-((S)-2-(2-(4-(4-(3-amino-6-(2-hydroxyphenyl)pyridazin-4-yl)phenoxy)piperidin-1-yl)acetamido)-3,3-dimethylbutanoyl)-4-hydroxy-N-((S)-1-(4-(4-methylthiazol-5-yl)phenyl)ethyl)pyrrolidine-2-carboxamide]
> 100 | 90 | 0 | Cc1ncsc1-c1ccc([C@H](C)NC(=O)[C@@H]2C[C@@H](O)CN2C(=O)[C@@H](NC(=O)C(C)N2CCC(c3ccc(-c4cc(-c5ccccc5O)nnc4N)cc3)CC2)C(C)(C)C)cc1 (mixture of isomers) [Compound 32, (2S,4R)-1-((2S)-2-(2-(4-(4-(3-amino-6-(2-hydroxyphenyl)pyridazin-4-yl)phenyl)piperidin-1-yl)propanamido)-3,3-dimethylbutanoyl)-4-hydroxy-N-((S)-1-(4-(4-methylthiazol-5-yl)phenyl)ethyl)pyrrolidine-2-carboxamide]
